One test has as its system CoN. Kind of test: MTT viability assay, CoN normal colon epithelial cell line. In kind it is cell-based, human. To be noted: 72 h of exposure, mean of six replicates of one experiment, read-out: IC50 Normal Cell Line (N) CoN. The method, then:
(§1) HCT-116 (CCL-247), LoVo (CCL-229), DLD-1 (CCL-221), HT-29 (HTB-38) and CoN (CCD-841) human CRC cells were obtained from the ATCC (Manassas, VA, USA). HCT-116 cells were cultured in Dulbecco’s Modified Eagle’s Medium (DMEM; Corning Cellgro, Corning, NY, USA) for the invasion assays or RPMI-1640 medium (Lonza, Westburg, The Netherlands) for all other assays. The LoVo, DLD-1, and HT-29 cell lines were grown in RPMI-1640 for all experiments. Media were supplemented with 10% fetal bovine serum (FBS; Gibco, Waltham, MA, USA or Greiner Bio-One, Vilvoorde, Belgium), 100 U/mL penicillin, and 100 µg/mL streptomycin (Gibco, Waltham, MA). Cells were grown at 37 °C and 5% CO2 in a humidified atmosphere. The CoN cells were cultured in Eagle’s Minimum Essential Medium (Lonza, Westburg, The Netherlands) supplemented with 10% FBS (South America origin, Greiner Bio-One, Vilvoorde, Belgium). HCT-116 p53^-/- cells were obtained from Denis L.J. LaFontaine, Université Libre de Bruxelles, Brussels, Belgium.
(§2) Effects of compounds on viability were assessed by means of 3-(4,5-dimethylthiazol-2-yl)-2,5-diphenyltetrazolium bromide (MTT; Sigma-Aldrich, Diegem, Belgium) colorimetric assay as previously reported. Briefly, cells were seeded in flat-bottom 96-well plates at the appropriate cell density 24 h prior to the exposure or not to the compound of interest. Each compound was first solubilized in dimethylsulfoxide (DMSO) at 10^−2 M concentration and further diluted in a serial manner in the culture medium. Nine concentrations ranging from 10 nM to 100 µM were tested in sextuplicate within the assay. Evaluation of the cell viability was conducted after 72 h of exposure to the compound by means of MTT assay.

Another test has as its system LoVo. Briefly: MTT viability assay, LoVo. In kind it is cell-based, human. The settings on record: 72 h of exposure, TP53 wild type, mean of six replicates of one experiment, read-out: IC50 Cancer Cell Lines (C) LoVo. The method, then: as §1, §2
For a further test, the system named is HT-29. Briefly: MTT viability assay, HT-29. The format is cell-based, human. The settings on record: 72 h of exposure, TP53 mutant, mean of six replicates of one experiment, read-out: IC50 Cancer Cell Lines (C) HT-29. On the procedure: as §1, §2
For test [1], the system named is Cancer Cell Lines (LoVo, HCT-116^+/+, HCT-116^-/-, HT-29, DLD-1). Briefly: MTT viability assay, mean over the five colon cancer cell lines and ratio to CoN. The format is cell-based, human. The method, then: as §1, §2
The next test concerns HCT-116 cells. Kind of test: Adhesion assay (crystal violet), HCT-116. The format is cell-based, human. The settings on record: 0.08 µM, 15 h, 0.5% FBS, one experiment. The method, then:
(§3) To evaluate the effects of the compounds on cell adhesion, 75000 HCT-116 or LoVo cells per well were seeded in 96-well flat-bottom plates in the presence or absence of each compound tested at three concentrations. In the first set of experiments, cells were allowed to adhere for 1, 5, 8, and 24 h and cultured with 10% FBS. Three independent experiments were performed each in sextuplicate to examine the time course of adhesion when grown with 10% FBS and increasing concentrations of each compound. In the second set of experiments cells were allowed to adhere for 15 h in a medium containing only 0.5% FBS to limit the contribution of proliferation to the results.
(§4) At the end of the incubation period, the plate was rinsed with phosphate buffered saline (PBS), fixed with 17.5% of formaldehyde at 4 °C for 15 min, and washed with deionized water twice before staining with 0.1% crystal violet (Sigma-Aldrich, Diegem, Belgium) in a 50:50 methanol/water mixture for 15 min. After extensive washes with water to remove any free crystal violet, the dye within the cells was extracted and solubilized in 100 µL of a 33% acetic acid solution and absorbance was measured at 570 nm (680XR, Bio-Rad Laboratories, Berkeley, CA, USA; reference wavelength 610 nm). The mean absorbance of the untreated control well was set at 100% for comparison. […]

For a further test, the system named is LoVo cells. Briefly: Adhesion assay (crystal violet), LoVo. In kind it is cell-based, human. To be noted: 0.08 µM, 15 h, 0.5% FBS, one experiment. The method, then:
as §3, §4

The next test has as its system VEGF. Briefly: Luminex assay of VEGF in HCT-116 and LoVo cell supernatants. In kind it is cell-based, human. To be noted: 0.08 µM; 24 h; both cell lines. From the text:
(§5) We ordered a customized Luminex® assay to quantify 15 targets at once from Biotechne (reference LXSAHM-15; R&D Systems, Abingdon, U.K.). The 15 targets were chosen on the basis of the literature as follows: the relevant metalloproteinases MMP-1, -2, -7, -9, -13 [49] and the cytokines associated with dismal prognosis or shorter disease-free survival period: C-C motif chemokine ligand (CCL) -4, CCL-22, Flt-3 ligand, IL-1β, IL-2, IL-6, IL-8, interferon gamma (IFNγ), vascular endothelial growth factor (VEGF), and pentraxin-3 [50]. Samples were prepared as follows: HCT-116 or LoVo cells were seeded in 6-well plates and allowed to adhere and grow until they reached 70% confluency. The culture medium was replaced by 1.5 mL of culture medium containing only 0.5% of FBS with or without the compounds to be tested (NAR at 80 nM, LYC at 6 µM, and HAE at 6 µM). After 24 h of treatment, supernatants were collected, aliquoted, and kept frozen at −80 °C. Three independent series of samples were prepared. […] We thus decided to concentrate several aliquots of our supernatant samples by centrifugation of 500 µL of supernatant with Amicon Ultra 0.5 mL filters characterized by a 3 kDa cut-off (UFC500324; Millipore, Merck, Hoeilaart, Belgium) leading to a final volume of 150 µL (3.3 times concentrated). The Luminex® assay was conducted according to manufacturer’s recommendations. […]

A further test deals with IL-8. Briefly: Luminex assay of IL-8 in HCT-116 and LoVo cell supernatants. To be noted: HCT-116 cells; NAR 80 nM; 24 h; in comparison to LYC. In kind it is cell-based, human.
Excerpt: as §5

Test [2] relates to subpanel of CRC cell lines. To be noted: NCI DTD 60 cell line screen; cited from earlier work.

On to `O=C1N[C@@H]2C(=C[C@H](O)[C@@H](O)[C@H]2O)c2cc3c(c(O)c21)OCO3` [NAR, narciclasine], for which the half-inhibitory concentration (IC50) was determined as 1100 nM in the test on CoN; 52 nM in the test with LoVo; 32 nM with HT-29; 33 nM in test [1] (mean over five cancer cell lines, MTT, 72 h, read-out: Mean IC50 Cancer Cells). In [1] (IC50 CoN / mean IC50 cancer cells), the “Ratio N/C” value was found to be 32. Moreover, in test [1] (MTT IC50 comparison NAR vs PANC), the “times more potent than PANC” value is reported as 10 times. The “inhibition of cell adhesion” value in the test with HCT-116 cells amounted to 39%. In addition, in the test on LoVo cells, the “maximal inhibition of cell adhesion” value amounted to 18%. Moreover, the “VEGF levels, times decreased” value in the test on VEGF is given as “up to 5 times”. The IL-8 levels result in the test on IL-8 is on record as “opposite effects”. In test [2], the GI50 is 45.7 nM.

These data come from PMC9496155, “Amaryllidaceae Alkaloids Decrease the Proliferation, Invasion, and Secretion of Clinically Relevant Cytokines by Cultured Human Colon Cancer Cells” (Biomolecules, 2022).
